Reference: patent publication US20060270591A1, “Androgen receptor coregulators” (priority 2002, published 2006)

Test system: p27^KIP1
Test: Western blot of p27KIP1 in PC-3(AR2) cells
Assay type: cell-based, human
Conditions: 10 nM DHT
Experimental: 41. […] (A) C2C12, COS-1, DU145 and PC-3 cell lines were co-transfected with 30 ng pSG5-AR, 0.5 μg MMTV-Luc, 1 ng pRL-SV40, various amounts of pSG5-bSV as indicated, and adjusted to total amount of 2 μg DNA with pSG5. The assay method was the same as FIG. 2. After measuring the luciferase activity, values relative to lane 1 were calculated. Results are the mean±S.D. of three independent experiments. (B) PC-3 was co-transfected with 30 ng pSG5-AR, 1.5 μg pSG5-bSV, 1 ng pRL-SV40, and 0.5 μg reporter gene as indicated by using SuperFect. […] (C) PC-3(AR2) cell line was transfected with EGFP or EGFP-bSV expressing vector using SuperFect. […] Proteins extracted from cells were loaded on 15% SDS-PAGE and analyzed by western blotting. The intensity of each p27 band was quantified and normalized with control protein which is a non-specific band pick up by the antibody in the same blot. The relative intensities to lane 1 were calculated.
478. Protein samples extracted from the cell were separated on 15% SDS-PAGE and transferred to nitrocellulose membranes. Membranes were incubated 1 h with 5% non-fat milk in TBST at room temperature, followed by the antibodies against p27^(KIP1) (Santa Cruz), followed by AP conjugated goat-antimouse antibody. Blots were developed using the AP developing reagent from Bio-Rad. Band intensity was quantitated by Collage® image analysis software (Fotodyne Inc.).

Substance: SV: supervillin, 205 kDa actin binding protein; bovine SV (a.a. 1-1792) used in reporter assays
- p27^(KIP1) protein expression: further enhanced p27^(KIP1) protein expression
